Laboratory results from patent US12667824B2, “Carbon dioxide absorbent” (MITSUBISHI GAS CHEMICAL COMPANY, INC., priority 2020, dated 2026).
Where two headings read alike, the source gives them in different places.

Legend:
[1] = Maximum endothermic temperature of amine compound (DSC, volatilization); format: physicochemical; conditions: DSC 23 to 350° C., 10° C./min, nitrogen; volatilization of the amine compound
Description: DSC measurements were performed on the amine compounds used in Examples and Comparative Examples to measure the maximum endothermic temperature of the amine compounds as follows. First, a differential scanning calorimetry was performed on the amine compounds using a differential thermogravimetric analyzer (Product Name: DTG-60 produced by Shimadzu Corporation) under conditions of 23 to 350° C. of a measurement temperature range, 10° C./min of a heating rate, and a nitrogen atmosphere. From the DSC curve obtained thereby, the temperature at which the endothermic amount associated with the volatilization of the amine compound reached the maximum was calculated, and the temperature thereof was used as the maximum endothermic temperature of the amine compound.

[2] = Amine value of amine compound (JIS K7237-1995 titration); format: physicochemical; conditions: 0.1 N perchloric acid-acetic acid titration
Description: The amine value was measured by the following measurement method in accordance with JIS K7237-1995. • (1) Dissolving 0.1 g of the amine compound in 20 mL of the acetic acid. • (2) Calculating the amine value by titrating the solution obtained in the above (1) with the 0.1 N perchloric acid-acetic acid solution using the automatic potentiometric titrator (AT-610 produced by Kyoto Electronics Manufacturing Co., Ltd.).

[3] = Acid dissociation constant (pKa) of amine compound by acid-base titration; format: physicochemical; conditions: in purified water, 25±2° C.
Description: The acid dissociation constant of the amine compound was determined by the following method. • (1) Dissolving 0.2 g of the amine compound in 30 mL of the purified water. • (2) Calculating the acid dissociation constant (pKa) by titrating the solution obtained in the above (1) with the 0.1 N perchloric acid-acetic acid solution using the automatic potentiometric titrator (AT-610 produced by Kyoto Electronics Manufacturing Co., Ltd.).
Still, let the temperature at the time of measurement be 25±2° C.

[4] = Maximum carbon dioxide (CO2) release temperature of amine compound (DSC); format: physicochemical; conditions: amine compound with CO2 absorbed, DSC 23 to 250° C., 10° C./min, nitrogen
Description: (Maximum Carbon Dioxide (CO2) Release Temperature of Amine Compound)
After the above evaluation of the carbon dioxide absorption capacity was completed, the amine compound was removed from the desiccator to obtain the amine compound with carbon dioxide absorbed. The DSC measurement was performed on the amine compound with carbon dioxide absorbed as follows, to measure the maximum carbon dioxide release temperature of the amine compound. […] From the DSC curve obtained thereby, the temperature at which the endothermic amount associated with the desorption of carbon dioxide reached the maximum was calculated, and the temperature thereof was used as the maximum carbon dioxide release temperature of the amine compound.

[5] = Cycle evaluation (absorption, regeneration at 100° C. for 1 hour); conditions: before and after heating at 100° C. for 1 hour; for Weight Retention 1st Time: 1st regeneration; for Weight Retention 2nd Time: 2nd regeneration
Description: After the above evaluation of the carbon dioxide absorption capacity was completed, the amine compound was removed from the desiccator, and the amine compound with carbon dioxide absorbed was heated at 100° C. for 1 hour to release the carbon dioxide absorbed and regenerate the amine compound. At this time, weights of the amine compound before and after the heat treatment were measured, and a weight retention (1st time) was calculated.
Then, on the regenerated amine compound, the above evaluation of the carbon dioxide absorption capacity was performed again, and changes of the carbon dioxide concentration in the desiccator were measured after 2 hours and 24 hours (2nd time).
Then, the amine compound was removed from the desiccator, and the amine compound with carbon dioxide absorbed was heated at 100° C. for 1 hour to release carbon dioxide absorbed and regenerate the amine compound again. At this time, the weights of the amine compound before and after the heat treatment were measured, and the weight retention (2nd time) was calculated.
Next, on the regenerated amine compound, the above evaluation of the carbon dioxide absorption capacity was evaluated again, and changes of the carbon dioxide concentration in the desiccator were measured after 2 hours and 24 hours (3rd time).

| Compound | Maximum Endothermic Temperature [1] | Amine Value [2] | pKa ([3]; purified water, read-out: pKa) | Maximum CO2 Release Temperature [4] | pKa [3] | Weight Retention 1st Time [5] | Weight Retention 2nd Time [5] |
| --- | --- | --- | --- | --- | --- | --- | --- |
| NCC1CCC(CN)CC1 (single isomer, unassigned) [Example 2, 1,4-bis(aminomethyl)cyclohexane] | 155.6 °C | 789 mgKOH/g | 10.9 | 135.2 °C |  |  |  |
| NCC1CCC(CN)CC1 (single isomer, unassigned) [Example 3, 1,4-bis(aminomethyl)cyclohexane] | 155.9 °C | 789 mgKOH/g |  | 130 °C | 11.3 |  |  |
| NCCNCCNCCN [Comparative Example 2, Triethylenetetramine, reference compound] | 184.1 °C | 1535 mgKOH/g |  | 69.5 °C |  | 98% | 95% |
| N#CCCNCC1CCCC(CN)C1 (stereo not shown) [Example 4] |  |  | 10.9 |  |  |  |  |
| NCCCNCC1CCCC(CNCCCN)C1 (stereo not shown) [Example 5] | 246.7 °C | 844 mgKOH/g |  | 97.8 °C |  | 100% | 100% |
